pKi: −log10 of the molar value.
Target: T1, KHK (Homo sapiens, UniProt P50053)
T1 construct: His tag; made in house; host or cells: E. coli
T1 sequence (P50053 1-298): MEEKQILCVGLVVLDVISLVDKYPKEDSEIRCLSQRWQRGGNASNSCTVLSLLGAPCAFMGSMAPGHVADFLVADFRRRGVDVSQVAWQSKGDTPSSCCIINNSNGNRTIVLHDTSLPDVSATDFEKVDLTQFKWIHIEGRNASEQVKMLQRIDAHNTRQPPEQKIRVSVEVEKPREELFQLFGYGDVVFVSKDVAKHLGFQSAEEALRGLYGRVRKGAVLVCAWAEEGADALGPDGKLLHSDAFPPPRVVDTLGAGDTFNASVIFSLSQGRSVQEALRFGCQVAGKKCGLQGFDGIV
Assay: Measurement of in vitro activity of KHK inhibitor (Transcreener ADP2 TR-FRET Red Assay)
Format: biochemical
Conditions: purified His-tagged KHK expressed in E. coli; 30 min preincubation with inhibitor, 15 min substrate reaction; Morrison equation
Method: KHK was expressed in E. coli, and purified using a His tag. To measure the activity of the purified KHK, a Transcreener ADP2 TR-FRET Red Assay kit of BellBrook Labs was used. The Transcreener ADP2 TR-FRET Red Assay kit is a method of measuring an amount of generated ADP using TR-FRET after proper concentrations of KHK and ATP, and a fructose-containing solution were reacted for 15 minutes. To measure the activity of a KHK inhibitor, KHK and a proper concentration of an inhibitor were first reacted for 30 minutes, and reacted with a solution containing a KHK substrate for 15 minutes. In addition, after the TR-FRET reaction for 1 hour, fluorescence was measured using an Envision apparatus of PerkinElmer. A setting value of the Envision apparatus was determined according to the TR-FRET optimization procedures published by BellBrook Labs.
The resulting value for each concentration of the KHK inhibitor is determined a ratio of a 665-nm wavelength and a 615-nm wavelength. Here, the 665/615 ratio was converted to an ADP concentration based on an ADP standard curve, and the inhibitory activity, a Ki value, was obtained using the Morrison equation in statistical software (Prizm).

Q: With C[C@H]1CCN1c1nc(N2C[C@H]3C[C@@H](C2)[C@@H]3CC(=O)O)c2c(c1C#N)CCOC2 [Example 4, 2-((1R,5S,6S)-3-(5-cyano-6-((S)-2-methylazetidin-1-yl)-3,4-dihydro-1H-pyrano[3,4-c]pyridin-8-yl)-3-azabicyclo[3.1.1]heptan-6-yl)acetic acid] as the compound, how does the pKi read?
A: ≥ 7.00

Q: C[C@@H]1OCc2c1nc(N1CC[C@@H]1C)nc2N1C[C@@H]2[C@@H](CC(=O)O)[C@@H]2C1 [Example 7, 2-((1R,5S,6S)-3-((S)-7-methyl-2-((S)-2-methylazetidin-1-yl)-5,7-dihydrofuro[3,4-d]pyrimidin-4-yl)-3-azabicyclo[3.1.0]hexan-6-yl)acetic acid] was tested. Which pKi did it give?
A: 6.00 to 7.00

Q: How did the pKi turn out when C[C@H]1CCN1c1nc(N2C[C@H]3C[C@@H](C2)[C@@H]3CC(=O)O)c2c(c1C#N)CCC2 [Example 1, 2-((1R,5S,6S)-3-(4-cyano-3-((S)-2-methylazetidin-1-yl)-6,7-dihydro-5H-cyclopenta[c]pyridin-1-yl)-3-azabicyclo[3.1.1]heptan-6-yl)acetic acid] was run?
A: ≥ 7.00

Q: With C[C@H]1CCN1c1nc(N2CC3CC(C2)C3CC(=O)O)c2c(c1C#N)CCCCC2 (stereo partly drawn) [Example 3, 2-(3-(4-cyano-3-((S)-2-methylazetidin-1-yl)-6,7,8,9-tetrahydro-5H-cyclohepta[c]pyridin-1-yl)-3-azabicyclo[3.1.1]heptan-6-yl)acetic acid] as the compound, how does the pKi read?
A: ≥ 7.00

Q: C[C@H]1CCN1c1nc(N2CC3CC(C2)C3CC(=O)O)c2c(n1)C(C)(C)OC2 (stereo partly drawn) [Example 5, 2-(3-(7,7-dimethyl-2-((S)-2-methylazetidin-1-yl)-5,7-dihydrofuro[3,4-d]pyrimidin-4-yl)-3-azabicyclo[3.1.1]heptan-6-yl)acetic acid] was tested. Which pKi did it give?
A: 6.00 to 7.00

Q: How did the pKi turn out when C[C@H]1CCN1c1nc(N2C[C@H]3C[C@@H](C2)[C@@H]3CC(=O)O)c2c(n1)C(F)(F)CC2 [Example 8, 2-((1R,5S,6S)-3-(7,7-difluoro-2-((S)-2-methylazetidin-1-yl)-6,7-dihydro-5H-cyclopenta[d]pyrimidin-4-yl)-3-azabicyclo[3.1.1]heptan-6-yl)acetic acid] was run?
A: ≥ 7.00

Q: C[C@H]1CCN1c1nc(N2C[C@H]3C[C@@H](C2)[C@@H]3CC(=O)O)c2c(c1C#N)CCCC2 [Example 2, 2-((1R,5S,6S)-3-(4-cyano-3-((S)-2-methylazetidin-1-yl)-5,6,7,8-tetrahydroisoquinolin-1-yl)-3-azabicyclo[3.1.1]heptan-6-yl)acetic acid] was tested. Which pKi did it give?
A: ≥ 7.00

Q: C[C@H]1CCN1c1nc(N2C[C@@H]3[C@@H](CC(=O)O)[C@@H]3C2)c2c(n1)C(F)(F)CC2 [Example 9, 2-((1R,5S,6S)-3-(7,7-difluoro-2-((S)-2-methylazetidin-1-yl)-6,7-dihydro-5H-cyclopenta[d]pyrimidin-4-yl)-3-azabicyclo[3.1.0]hexan-6-yl)acetic acid] was tested. Which pKi did it give?
A: ≥ 7.00

Q: How did the pKi turn out when O=C(O)C[C@@H]1[C@H]2CN(c3nc(N4CCCC4)nc4c3CCCC4(F)F)C[C@@H]12 [Example 12, 2-((1R,5S,6S)-3-(8,8-difluoro-2-(pyrrolidin-1-yl)-5,6,7,8-tetrahydroquinazolin-4-yl)-3-azabicyclo[3.1.0]hexan-6-yl)acetic acid] was run?
A: 6.00 to 7.00

Q: How did the pKi turn out when C[C@@H]1OCc2c1nc(N1CC[C@@H]1C)nc2N1C[C@H]2C[C@@H](C1)[C@@H]2CC(=O)O [Example 6, 2-((1R,5S,6S)-3-((S)-7-methyl-2-((S)-2-methylazetidin-1-yl)-5,7-dihydrofuro [3,4-d]pyrimidin-4-yl)-3-azabicyclo[3.1.1]heptan-6-yl)acetic acid] was run?
A: 6.00 to 7.00

Q: How did the pKi turn out when C[C@H]1CCN1c1nc(N2C[C@H]3C[C@@H](C2)[C@@H]3CC(=O)O)c2c(n1)C(F)(F)CCC2 [Example 10, 2-((1R,5S,6S)-3-(8,8-difluoro-2-((S)-2-methylazetidin-1-yl)-5,6,7,8-tetrahydroquinazolin-4-yl)-3-azabicyclo[3.1.1]heptan-6-yl)acetic acid] was run?
A: ≥ 7.00

Q: How did the pKi turn out when C[C@H]1CCN1c1nc(N2C[C@@H]3[C@@H](CC(=O)O)[C@@H]3C2)c2c(n1)C(F)(F)CCC2 [Example 11, 2-((1R,5S,6S)-3-(8,8-difluoro-2-((S)-2-methylazetidin-1-yl)-5,6,7,8-tetrahydroquinazolin-4-yl)-3-azabicyclo[3.1.0]hexan-6-yl)acetic acid] was run?
A: ≥ 7.00

From patent publication US20230203008A1, “3-AZABICYCLOALKYL DERIVATIVE AND PHARMACEUTICAL COMPOSITION CONTAINING SAME” (LG CHEM, LTD., priority 2020, published 2023)
